The target in assay [1] is T1, human M1 muscarinic acetylcholine receptor (hM1 mAChR) (Homo sapiens, UniProt P11229).
T1 construct: gene CHRM1; membranes of CHO cells stably expressing human M1
T1 sequence (P11229 1-460): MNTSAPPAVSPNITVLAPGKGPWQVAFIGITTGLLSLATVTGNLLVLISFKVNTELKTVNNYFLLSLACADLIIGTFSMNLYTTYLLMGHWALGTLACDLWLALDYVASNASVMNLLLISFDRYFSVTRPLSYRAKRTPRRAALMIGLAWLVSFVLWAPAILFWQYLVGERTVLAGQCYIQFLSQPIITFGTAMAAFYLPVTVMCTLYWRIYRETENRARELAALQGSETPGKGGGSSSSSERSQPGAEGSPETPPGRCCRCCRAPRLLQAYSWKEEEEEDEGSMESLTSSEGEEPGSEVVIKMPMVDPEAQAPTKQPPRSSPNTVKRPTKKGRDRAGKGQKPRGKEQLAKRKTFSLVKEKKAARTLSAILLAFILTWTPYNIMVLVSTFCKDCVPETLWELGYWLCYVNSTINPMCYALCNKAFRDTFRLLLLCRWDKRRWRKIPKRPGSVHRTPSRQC
The experiment in a line: [3H]NMS radioligand displacement; also antagonism of CCh-induced calcium mobilization. The format is binding. The text has this: [3H]NMS radioligand displacement; also antagonism of CCh-induced calcium mobilization on human M1 muscarinic acetylcholine receptor (hM1 mAChR) | DEET displaced the [^3H]N-Methyl Scopolamine (NMS) binding from M1 and M3 mAChRs but only in the millimolar range
In general terms: Loss of bound radioactivity is the signal in a displacement assay; it reports binding, not function.

Assay [2] has as its target T2, human M3 muscarinic acetylcholine receptor (hM3 mAChR) (Homo sapiens, UniProt P20309).
T2 construct: gene CHRM3; membranes of CHO cells stably expressing human M3
Described as above. The format is binding.

Assay [3] concerns acetylcholinesterase (AChE). The experiment in a line: Ellman spectrophotometric AChE activity assay on DUM neuron suspension. The format is cell-based, Periplaneta americana. Background: DTNB colorimetry detects thiols as they appear.

T2 sequence (P20309 whole entry): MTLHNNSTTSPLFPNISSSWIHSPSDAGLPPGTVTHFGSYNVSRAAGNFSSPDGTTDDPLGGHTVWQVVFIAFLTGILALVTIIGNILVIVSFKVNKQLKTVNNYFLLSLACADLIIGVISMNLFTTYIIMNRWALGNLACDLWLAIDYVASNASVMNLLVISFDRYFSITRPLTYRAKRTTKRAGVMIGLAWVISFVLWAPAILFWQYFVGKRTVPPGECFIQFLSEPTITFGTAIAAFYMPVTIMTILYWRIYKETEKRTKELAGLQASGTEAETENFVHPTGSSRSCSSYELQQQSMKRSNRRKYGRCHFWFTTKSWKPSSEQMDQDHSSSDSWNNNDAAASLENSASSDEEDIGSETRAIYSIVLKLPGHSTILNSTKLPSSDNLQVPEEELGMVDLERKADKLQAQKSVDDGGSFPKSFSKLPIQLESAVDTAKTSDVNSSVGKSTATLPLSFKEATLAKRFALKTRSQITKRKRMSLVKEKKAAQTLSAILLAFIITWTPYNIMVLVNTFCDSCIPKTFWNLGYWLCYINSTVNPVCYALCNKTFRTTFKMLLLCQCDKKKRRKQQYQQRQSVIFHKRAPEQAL

For the molecule `CCN(CC)C(=O)c1cccc(C)c1` [DEET, N,N-Diethyl-3-methylbenzamide], the Ki (commonly a measure of affinity in units of concentration, obtained from inhibition or displacement) worked out at 690 ± 190 µM in assay [1] and 370 ± 20 µM in assay [2].
Regarding `CNC(=O)Oc1ccccc1OC(C)C` [propoxur, 2-isopropoxyphenylmethylcarbamate], the IC50 – broadly, the concentration that gives 50% inhibition – in assay [3] was 0.02 µM.

Source of the values: paper PMC4427492, “The Repellent DEET Potentiates Carbamate Effects via Insect Muscarinic Receptor Interactions: An Alternative Strategy to Control Insect Vector-Borne Diseases” (PLoS ONE, 2015).
